According to patent US5789438A, “Inhibitors of farnesyl-protein transferase” (Merck & Co., Inc., priority 1997, dated 1998):

Biological target: T1, human FPTase (Homo sapiens, UniProt P49354+P49356)
T1 construct: made in house
Assay: In vitro inhibition of human farnesyl-protein transferase ([3H]-FPP incorporation into Ras-CVIM)
Type: biochemical
Conditions: 100 nM Ras-CVIM, 30 min, read-out: IC50, inhibitory activity against human FPTase

| IC50 | SMILES |
| --- | --- |
| < 20 µM | COC1OC(OC)c2c1cc(O)c1c2O[C@@]2(C)CC[C@H]3C(C)(C)[C@@H](OC(C)=O)CC[C@]3(C)[C@H]2C1 (some centres unmarked) [Compound I] |
| < 20 µM | CC(=O)O[C@H]1CC[C@]2(C)[C@H]3Cc4c(O)cc5c(c4O[C@@]3(C)CC[C@H]2C1(C)C)COC5=O [Compound II] |
